# Patent publication US20220079944A1, “2H-INDAZOLE DERIVATIVES AS THERAPEUTIC AGENTS FOR BRAIN CANCERS AND BRAIN METASTASES” (BETA PHARMA, INC., priority 2019, published 2022)
# Read-outs that look alike come from different tables or passages of the source.
# Assays:
# p-glycoprotein (P-gp) = p-glycoprotein (P-gp) (Homo sapiens, UniProt P08183); conditions: background statement; cited from earlier work
# MDR1 (P-gp) = assay: in vitro; conditions: dog, MDCK-MDR1
# Method: MDR1-MDCK cell monolayers were grown to confluence on collagen-coated, microporous membranes in 12-well assay plates. […] The permeability assay buffer was Hanks' balanced salt solution (HBSS) containing 10 mM HEPES and 15 mM glucose at a pH of 7.4. The buffer in the receiver chamber also contained 1% bovine serum albumin. The dosing solution concentration was 5 μM of test article in the assay buffer+/−1 μM valspodar. Cells were first pre-incubated for 30 minutes with HBSS containing +/−1 μM valspodar. Cell monolayers were dosed on the apical side (A-to-B) or basolateral side (B-to-A) and incubated at 37° C. with 5% CO2 in a humidified incubator. Samples were taken from the donor and receiver chambers at 120 minutes. Each determination was performed in duplicate. The flux of lucifer yellow was also measured post-experimentally for each monolayer to ensure no damage was inflicted to the cell monolayers during the flux period. All samples were assayed by LC-MS/MS using electrospray ionization.
# [1] = Brain concentration and brain/plasma ratio in mouse after 10 mg/kg p.o.; type: in vivo; conditions: PO 10 mg/kg
# [2] = brain, po, 10 mg/kg, individual animal R1, read-out: Brain Concentration, R1 + 3n
# [3] = brain, po, 10 mg/kg, individual animal R2, read-out: Brain Concentration, R2 + 3n
# [4] = brain, po, 10 mg/kg, individual animal R3, read-out: Brain Concentration, R3 + 3n
# [5] = brain, po, 10 mg/kg, mean, read-out: Brain Concentration, Mean PO
# [6] = plasma, po, 10 mg/kg, individual animal R1, read-out: Plasma Concentration, R1 + 3n
# [7] = plasma, po, 10 mg/kg, individual animal R2, read-out: Plasma Concentration, R2 + 3n
# [8] = plasma, po, 10 mg/kg, individual animal R3, read-out: Plasma Concentration, R3 + 3n
# [9] = plasma, po, 10 mg/kg, mean, read-out: Plasma Concentration, Mean PO
# p-glycoprotein (P-gp), sequence (P08183 whole entry): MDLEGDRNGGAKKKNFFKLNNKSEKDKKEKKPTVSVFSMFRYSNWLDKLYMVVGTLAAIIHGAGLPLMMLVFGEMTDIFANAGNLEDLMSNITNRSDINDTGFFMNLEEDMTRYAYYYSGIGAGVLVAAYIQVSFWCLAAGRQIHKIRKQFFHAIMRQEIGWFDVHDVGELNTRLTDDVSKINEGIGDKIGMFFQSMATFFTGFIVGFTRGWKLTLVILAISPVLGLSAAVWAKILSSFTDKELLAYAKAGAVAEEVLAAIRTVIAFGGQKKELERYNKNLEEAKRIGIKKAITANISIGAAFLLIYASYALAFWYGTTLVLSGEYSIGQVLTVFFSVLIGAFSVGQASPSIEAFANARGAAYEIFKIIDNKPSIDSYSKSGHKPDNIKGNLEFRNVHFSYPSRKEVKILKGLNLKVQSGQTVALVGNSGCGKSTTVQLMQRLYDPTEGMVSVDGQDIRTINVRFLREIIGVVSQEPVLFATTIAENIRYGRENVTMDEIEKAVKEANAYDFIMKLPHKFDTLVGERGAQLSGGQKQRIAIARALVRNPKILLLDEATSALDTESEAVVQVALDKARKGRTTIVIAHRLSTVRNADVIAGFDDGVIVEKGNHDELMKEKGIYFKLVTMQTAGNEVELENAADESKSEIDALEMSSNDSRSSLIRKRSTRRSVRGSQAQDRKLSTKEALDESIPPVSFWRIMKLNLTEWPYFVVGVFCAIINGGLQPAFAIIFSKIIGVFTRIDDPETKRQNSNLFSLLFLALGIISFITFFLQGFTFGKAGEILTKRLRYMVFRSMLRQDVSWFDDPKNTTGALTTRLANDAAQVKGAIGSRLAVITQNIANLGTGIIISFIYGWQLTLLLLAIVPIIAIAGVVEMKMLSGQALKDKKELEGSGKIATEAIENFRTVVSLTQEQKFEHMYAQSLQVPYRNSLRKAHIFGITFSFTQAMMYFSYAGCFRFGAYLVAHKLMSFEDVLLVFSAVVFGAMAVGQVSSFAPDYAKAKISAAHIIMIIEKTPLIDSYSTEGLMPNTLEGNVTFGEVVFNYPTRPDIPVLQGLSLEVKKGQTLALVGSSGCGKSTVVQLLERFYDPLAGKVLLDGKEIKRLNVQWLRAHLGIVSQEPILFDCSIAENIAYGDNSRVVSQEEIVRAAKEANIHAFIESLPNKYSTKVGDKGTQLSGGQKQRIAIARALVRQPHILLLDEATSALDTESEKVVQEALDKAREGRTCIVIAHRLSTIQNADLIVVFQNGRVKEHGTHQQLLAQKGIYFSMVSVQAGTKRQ
smiles,measurement,setting,value
CC(=O)c1c(C)c2cnc(Nc3ccc(N4CCNCC4)cn3)nc2n(C2CCCC2)c1=O [palbociclib],P-gp substrate,p-glycoprotein (P-gp),p-glycoprotein (P-gp) substrates
C[C@H]1O[C@@H](O[C@H]2[C@@H](O)C[C@H](O[C@H]3[C@@H](O)C[C@H](O[C@H]4CC[C@@]5(C)[C@H](CC[C@@H]6[C@@H]5C[C@@H](O)[C@]5(C)[C@@H](C7=CC(=O)OC7)CC[C@]65O)C4)O[C@@H]3C)O[C@@H]2C)C[C@H](O)[C@@H]1O [Digoxin],Papp A→B,MDR1 (P-gp),0.05 ×10⁻⁶ cm/s
same,Papp B→A,MDR1 (P-gp),13.9 ×10⁻⁶ cm/s
same,efflux ratio,MDR1 (P-gp),254
"CCN1CCN(Cc2ccc(Nc3ncc(F)c(-c4cc(F)c5nc(C)n(C(C)C)c5c4)n3)nc2)CC1 [abemaciclib, reference compound]","AUC0-last Ratio, brain/plasma (B/P) ratio","[1]; brain AUC0-last / plasma AUC0-last, 10 mg/kg",0.432
same,Brain AUC0-last,"[1]; brain, from mean concentrations",4085 ng·h/g
same,AUC(0-t),"[1]; plasma, from mean concentrations, read-out: Plasma AUC0-last",9450 ng·h/mL
same,concentration at 2 h,[1]; [2],216 ng/g
same,concentration at 2 h,[1]; [3],326 ng/g
same,concentration at 2 h,[1]; [4],302 ng/g
same,concentration at 2 h,[1]; [5],282 ng/g
same,concentration at 4 h,[1]; [2],452 ng/g
same,concentration at 4 h,[1]; [3],370 ng/g
same,concentration at 4 h,[1]; [4],469 ng/g
same,concentration at 4 h,[1]; [5],430 ng/g
same,concentration at 8 h,[1]; [2],421 ng/g
same,concentration at 8 h,[1]; [3],277 ng/g
same,concentration at 8 h,[1]; [4],341 ng/g
same,concentration at 8 h,[1]; [5],347 ng/g
same,concentration at 24 h,[1]; [2],6.51 ng/g
same,concentration at 24 h,[1]; [3],14.8 ng/g
same,concentration at 24 h,[1]; [4],10.6 ng/g
same,concentration at 24 h,[1]; [5],10.6 ng/g
same,Kp,"[1]; brain, po, 10 mg/kg, brain AUC0-last / plasma AUC0-last, read-out: AUC0-last Ratio, brain/plasma (B/P) ratio",0.43
same,concentration at 2 h,[1]; [6],633 ng/mL
same,concentration at 2 h,[1]; [7],1060 ng/mL
same,concentration at 2 h,[1]; [8],821 ng/mL
same,concentration at 2 h,[1]; [9],836 ng/mL
same,concentration at 4 h,[1]; [6],700 ng/mL
same,concentration at 4 h,[1]; [7],744 ng/mL
same,concentration at 4 h,[1]; [8],963 ng/mL
same,concentration at 4 h,[1]; [9],802 ng/mL
same,concentration at 8 h,[1]; [6],1020 ng/mL
same,concentration at 8 h,[1]; [7],707 ng/mL
same,concentration at 8 h,[1]; [8],780 ng/mL
same,concentration at 8 h,[1]; [9],837 ng/mL
same,concentration at 24 h,[1]; [6],11.5 ng/mL
same,concentration at 24 h,[1]; [7],46.7 ng/mL
same,concentration at 24 h,[1]; [8],16.6 ng/mL
same,concentration at 24 h,[1]; [9],24.9 ng/mL
same,P-gp substrate,p-glycoprotein (P-gp),p-glycoprotein (P-gp) substrates
CC(C)NCC(O)COc1cccc2ccccc12 (stereo not drawn) [Propranolol],Papp,MDR1 (P-gp),12.8 ×10⁻⁶ cm/s
